pKd: −log10 of the molar value.
How the values were obtained:
1G4 TCR [1] = experiment: Laminar flow chamber (LFC) assay, 1G4 TCR-coated beads over pMHC surface; settings: for force sensitivity parameter xβ, 1G4 TCR: Bell's model fit of off-rates under force (survival at 1 s, corrected for non-specific binding), forces < 120 pN, 6–10 independent experiments combined; for force sensitivity parameter xβ, 1G4 TCR / zero-force off-rate (k0off) from Bell's model, 1G4 TCR: cell-free; for force sensitivity parameter xβ, 1G4 TCR / bond type at forces < 20 pN, 1G4 TCR / bond type under force, 1G4 TCR / zero-force off-rate (k0off) from Bell's model, 1G4 TCR / off-rate: 37°C; for bond type at forces < 20 pN, 1G4 TCR / bond type under force, 1G4 TCR: LFC; for bond type under force, 1G4 TCR: purified TCR; for zero-force off-rate (k0off) from Bell's model, 1G4 TCR: extrapolated from off-rates under force (survival at 1 s, corrected data); for off-rate: survival at 1 s, corrected data; for koff_0: source data of Fig 2E, 1G4 TCR, zero-force off-rate from Bell's model fit
Procedure: In this assay, beads coated with TCR flow over a low density of pMHC while a camera records bead motion (Fig 2A, Movie EV1). […] The duration of TCR/pMHC binding is determined by an automated image analysis algorithm that detects the duration of bead arrests.
We first confirmed that bead arrests were mediated by single bonds. […] These constraints limit the LFC to a range of flow velocities that translate into pulling forces between ~ 5–120 pN with the upper bound determined, in part, by the binding rate and strength of the specific TCR/pMHC interaction. Finally, survival distributions were generated using the duration of individual beads for each TCR/pMHC pair and corrected by the corresponding distribution of arrests without pMHC for each paired velocity. We focus on the first 5 s of the distribution because on longer timescales measurement of bead arrest is often interrupted by a collision from a second bead.
Glass slides were rinsed twice in absolute ethanol then washed in a “piranha” solution composed of 70% H2SO4, 15% water and 15% H2O2 for 10 min, then rinsed with 5 litres of deionized water. […] Glass slides were then mounted in a home‐made multi‐channel thermo‐regulated flow chamber device, forming nine independent chambers of 12 mm length and 2 × 0.250 mm^2 section. Each chamber was then filled with a biotinylated pMHC solution in PBS with 0.1% BSA at chosen concentration, using cascade dilution to deposit in our 9‐chambers apparatus 8 different amounts of pMHC plus one chamber as a negative control. Microspheres (Dynal M‐450 tosly‐activated, Thermo Fisher, France) were rinsed three time in a 0.1 M borate solution, then incubated in a 200 μg/ml solution of anti‐6xHis‐tag antibody (Bio‐Rad, MCA1396, clone AD1.1.10, RRID: AB322084) overnight under constant agitation. Microspheres were rinsed three time in PBS/0.1% BSA then incubated prior to each experiment in a 200 μg/ml solution of 6xHis‐tag TCR.
The device forming nine independent chambers on a common glass slide was thermo‐regulated at 37°C by water circulation, set on an inverted microscope with a 10× lens (Leica, Germany) with a digital CCD camera (UEye, IDS Germany), and chamber entry was connected to the piping. For each independent chamber, the automaton performed cycles, each cycle being an experiment for a given shear flow. The automaton repeated cycles of microspheres agitation, microspheres injection in the chamber, launch of movie recording at 50 frames per seconds with M‐JPEG on‐the‐fly compression, and flow at a given shear for 90 s. Shear value was automatically modified for each new cycle until all chosen shear conditions had been recorded. The chamber was manually disconnected and next chamber was connected, then automaton was re‐launched. Raw data are in the form of movies of microspheres motion. A software suite written in Java as ImageJ plug‐ins retrieves microspheres trajectories and then detects microspheres arrest events using a velocity threshold and record arrests number, arrests duration and distance travelled by sedimented microspheres.
Binding linear densities are calculated as the ratio of the number of arrests on the distance travelled by microspheres sedimented on the chamber surface. Specific binding densities are calculated by subtracting control linear binding density from assay linear binding density for a given shear condition. Duration of arrests was pooled for experiments sharing identical TCR and pMHC molecules, identical amount of pMHC on the surface and identical shear rate, to build survival curves of the arrests. […] Each TCR‐pMHC bond was measured in 8 to 12 independent experiments.

1G4 TCR [2] = test system: 1G4 TCR; design: method as in Robert et al, 2012; settings: ref Robert et al, 2012; cited from earlier work
1G4 TCR [3] = settings: solution affinity of NYE pMHC for 1G4 TCR used in Fig 4F; ref Pettmann et al, 2021; cited from earlier work
[4] = target: Tax 7T peptide presented on HLA-A*02:01 (human | HTLV-1); experiment: SPR
[5] = target: Tax 5H peptide presented on HLA-A*02:01 (human | HTLV-1); experiment: SPR
[6] = target: Tax 7R peptide presented on HLA-A*02:01 (human | HTLV-1); experiment: SPR
[7] = target: Tax 5F peptide (printed ) presented on HLA-A*02:01 (human | HTLV-1); experiment: SPR
[8] = target: Tax 7Q peptide presented on HLA-A*02:01 (human | HTLV-1); experiment: SPR
[9] = target: NYE 4E5E8E peptide presented on HLA-A*02:01; experiment: SPR
[10] = target: NYE 3A peptide presented on HLA-A*02:01; experiment: SPR
[11] = target: NYE 3Y peptide presented on HLA-A*02:01; experiment: SPR
[12] = target: NYE 6T peptide presented on HLA-A*02:01; experiment: SPR
[13] = target: NYE 4D peptide presented on HLA-A*02:01; experiment: SPR
[14] = target: NYE 6V peptide presented on HLA-A*02:01; experiment: SPR

## SLLMWTTQV [NYE 6T, NYE peptide variant presented on HLA-A*02:01 (pMHC), ligand of the 1G4 TCR]
1G4 TCR [1]
  force sensitivity parameter xβ, 1G4 TCR: 0.019 nm
  bond type at forces < 20 pN, 1G4 TCR: slip bonds
  bond type under force, 1G4 TCR: did not display canonical slip or catch bonds
  zero-force off-rate (k0off) from Bell's model, 1G4 TCR: 0.87 s⁻¹
1G4 TCR [2]
  bond type under force at 25°C, 1G4 TCR: catch bonds
1G4 TCR [3]
  pKd: 3.79

## SLLMWVTQV [NYE 6V]
1G4 TCR [1]
  force sensitivity parameter xβ, 1G4 TCR: 0.08939 nm
1G4 TCR [1]; Force 4.03 pN
  off-rate: 0.1923 s⁻¹
1G4 TCR [1]; Force 10.0633 pN
  off-rate: 0.2976 s⁻¹
1G4 TCR [1]; Force 34.1225 pN
  off-rate: 0.9589 s⁻¹
1G4 TCR [1]; Force 53.3785 pN
  off-rate: 1.216 s⁻¹
1G4 TCR [1]; Force 71.3475 pN
  off-rate: 1.468 s⁻¹

## Soluble A6 TCR (from UniProt P01848 1-93; A0A5B9 1-129)
[4]
  pKd: 5.52
[5]
  pKd: 4.25
[6]
  pKd: 4.68
[7]
  pKd: 5.52
[8]
  pKd: 4.43

## SLLDWITQV [NYE 4D, NYE peptide variant presented on HLA-A*02:01 (pMHC), ligand of the 1G4 TCR]
1G4 TCR [1]
  force sensitivity parameter xβ, 1G4 TCR: 0.03228 nm
  koff_0: -0.1852
1G4 TCR [1]; Force 5.76043 pN
  off-rate: 0.2871 s⁻¹
1G4 TCR [1]; Force 10.9915 pN
  off-rate: 0.9234 s⁻¹
1G4 TCR [1]; Force 35.7266 pN
  off-rate: 1.088 s⁻¹
1G4 TCR [1]; Force 49.679 pN
  off-rate: 0.8939 s⁻¹
1G4 TCR [1]; Force 66.9081 pN
  off-rate: 1.152 s⁻¹
1G4 TCR [1]; Force 92.3818 pN
  off-rate: 1.23 s⁻¹
1G4 TCR [3]
  pKd: 3.85

## SLAMWITQV [NYE 3A, NYE peptide variant presented on HLA-A*02:01 (pMHC), ligand of the 1G4 TCR]
1G4 TCR [1]
  force sensitivity parameter xβ, 1G4 TCR: -0.016 nm
  bond type at forces < 20 pN, 1G4 TCR: slip bonds
  bond type under force, 1G4 TCR: did not display canonical slip or catch bonds
  zero-force off-rate (k0off) from Bell's model, 1G4 TCR: 0.42 s⁻¹
1G4 TCR [2]
  bond type under force at 25°C, 1G4 TCR: canonical slip

## Soluble 1G4 TCR (from UniProt P01848 1-93; A0A5B9 1-129)
[9]
  pKd: 4.77
[10]
  pKd: 5.15
[11]
  pKd: 4.26
[12]
  pKd: 3.79
[13]
  pKd: 3.86
[14]
  pKd: 4.77

## SLLEEITEV [NYE 4E5E8E]
1G4 TCR [1]
  force sensitivity parameter xβ, 1G4 TCR: 0.06548 nm
  koff_0: -0.7399
1G4 TCR [1]; Force 9.5329 pN
  off-rate: 0.132 s⁻¹
1G4 TCR [1]; Force 20.855 pN
  off-rate: 0.181 s⁻¹
1G4 TCR [1]; Force 57.9236 pN
  off-rate: 0.5269 s⁻¹
1G4 TCR [1]; Force 74.4128 pN
  off-rate: 0.6611 s⁻¹
1G4 TCR [1]; Force 98.8295 pN
  off-rate: 0.7569 s⁻¹

## SLYMWITQV [NYE 3Y]
1G4 TCR [1]
  force sensitivity parameter xβ, 1G4 TCR: 0.06402 nm
1G4 TCR [1]; Force 4.46758 pN
  off-rate: 0.1572 s⁻¹
1G4 TCR [1]; Force 11.986 pN
  off-rate: 0.462 s⁻¹
1G4 TCR [1]; Force 24.9875 pN
  off-rate: 0.9162 s⁻¹
1G4 TCR [1]; Force 50.6303 pN
  off-rate: 1.043 s⁻¹
1G4 TCR [1]; Force 74.2014 pN
  off-rate: 1.215 s⁻¹

Source: PMC10068313, “Mechanical forces impair antigen discrimination by reducing differences in T‐cell receptor/peptide–MHC off‐rates” (The EMBO Journal, 2022)
